According to US10682388B2, “Targeting of PELP1 in cancer therapy” (THE BOARD OF REGENTS OF THE UNIVERSITY OF TEXAS SYSTEM, priority 2014, dated 2020):
Entries after “also recorded” stand apart in the source; their conditions may differ.

Key:
[1] = tested on: ERE-luciferase in ZRPELP1 cells; experiment: ERE-luciferase reporter gene assay in PELP1 overexpressing cells; assay type: cell-based, Human; conditions: peptide 24 hours, estradiol 12 hours, compared to control TAT, FIGS. 4B, 10
Experimental: FIGS. 4A-E. (FIG. 4A) ZR75vec, ZR75PELP1, MCF7vec and MCF7PELP1 cells were treated in triplicate with TAT, PIP1 or PIP1 deletions (Del1, Del2, Del3) at 10 uM every 3 days and proliferation was measured by MTT assay on day 7. (FIG. 4B) ZRPELP1 cells were transfected with ERE-luciferase and treated with TAT, PIP1, or PIP2 for 24 hours and with estradiol for 12 hours. Relative luciferase activity was measured in triplicate. (FIG. 4C) ZR75 cells were grown in 5% DCC media for 72 hours, treated with TAT or PIP1 every 3 days, and treated with estradiol 10^−7 M for 12 hours. Proliferation was measured in triplicate on day 7 by MTT assay at 595 nm. (FIG. 4D) MCF7-Letrozole resistant cells were grown in 5% DCC media for 72 hours, treated with TAT, PIP1 or PIP2 every 3 days, and letrozole or estradiol 10^−7 M for 12 hours. Proliferation was measured in triplicate on day 7 by MTT assay at 595 nm. (FIG. 4E) MCF7-Tamoxiefn resistant cells were grown in 5% DCC media for 72 hours, treated with TAT, PIP1 or PIP2 every 3 days, and tamoxifen or estradiol 10^−7 M for 12 hours. Proliferation was measured in triplicate on day 7 by MTT assay at 595 nm.
FIG. 10. ERE-luciferase assay. […]
Model cells were seeded in 6-well plates. […] Luciferase activity was measured by using the luciferase assay system (Promega, Madison, Wis.).

[2] = tested on: ERE-luciferase in ZR75 cells; experiment: ERE-luciferase reporter gene assay in ZR75 cells transfected with PELP1 and/or G9a; assay type: cell-based, Human; conditions: FIG. 2D
Experimental: FIGS. 2A-D. (FIG. 2A) Immunoprecipitation was performed on nuclear lysates obtained from ZRPELP1 cells grown in 5% DCC for 72 hours and treated with estradiol 10^−7 M for 12 hours. PELP1 was immunoprecipitated and western blotting was performed for PELP1 and G9a expression with IgG as the control. (FIG. 2B) Various fragments of PELP1 bound to glutathione beads were incubated with recombinant G9a for 2 hours. Beads were washed, run on an SDS-PAGE gel and immunoblotted for G9a expression. GST tag alone is shown as control. (FIG. 2C) Recombinant G9a-GST was bound to glutathione beads and incubated with purified PELP1 and peptides for 2 hours. Beads were washed and run on SDS-PAGE gel. (FIG. 2D) ZR75 cells were transfected with ERE-luciferase, PELP1 and/or G9a plasmids and treated with peptide for 24 hours and estradiol 10^−7 M for 12 hours. Relative luciferase activity is shown.
Model cells were seeded in 6-well plates. After overnight incubation, the cells were transfected with ERE-Luc plasmids using fugene for 6 h. Then, 24 hours after transfection, cells were incubated in 5% DCC media for estrogen starvation and then treated with TAT or PIP1/PIP2 for an additional 24 hours and estradiol (10^−8) for 12 hours. […] Luciferase activity was measured by using the luciferase assay system (Promega, Madison, Wis.).

ZRPELP1 cells = experiment: Soft agar colony formation assay; assay type: cell-based, Human; conditions: 10 μM every three days, colonies counted day 14, FIG. 5C
Experimental: FIGS. 5A-D. (FIG. 5A) ZR75vec, ZR75PELP1, MCF7vec and MCF7PELP1 cells were plated in the top of a Boyden chamber transwell, treated with TAT, PIP1 or PIP2 (10 μM) and absorbance was measured at 12 hours in triplicate. (FIG. 5B) MCF7vec, MCFP7ELP1, ZR75vec and ZR75PELP1 cells were treated in triplicate with TAT, PIP1 or PIP2 (10 μM) every 3 days, fixed with methanol on day 10 and stained with crystal violet. Average colonies per well are shown. (FIG. 5C) ZR75vec and ZR75PELP1 cells were plated in triplicate in agar with 8% RPMI with TAT, PIP1 or PIP2 (10 μM). Colonies were counted on day 14, representative images are shown on right. (FIG. 5D) ZR75 cells were plated on coverslips in triplicate and treated with TAT or PIP1 (10 μM) for 24 hours. Cells were fixed with paraformaldehyde and labeled with TUNEL and DAPI, representative images are shown on right.
Model cells MCF7, MCF7-PELP1, ZR75 and ZR75-PELP1 were seeded in a 0.6% agar solution with RPMI/10% FBS over a base agar layer in 35 mm plates in triplicate with TAT, PIP1, or PIP2 (10 μM). Media with peptide was added every 3 days and colonies were counted after 14 days.

[3] = tested on: MCF7PELP1 Cd44high/CD22low cells; experiment: Mammosphere formation and self-renewal assay on FACS-sorted cells; assay type: cell-based, Human
Text: FIGS. 6A-C. (FIG. 6A) ZR75, ZR75PELP1 and ZR75PELP1KD cells were FACS sorted for CD44-APC and CD24-PE, and quantification of percentage of CD44high/CD24low cells is shown. (FIG. 6B) MCF7PELP1 cells were FACS sorted for CD44high/CD24low cells and plated in triplicate in serum free mammosphere media with TAT or PIP1 in various concentrations. Mammospheres were counted and imaged on day 7. Representative images are shown on right. (FIG. 6C) Mammospheres from previous assay (C) were dissociated and replated in serum free mammosphere media. Mammospheres were counted and imaged on day 7. Representative images are shown on right. ZR75PELP1 and MCF7PELP1 cells were FACS sorted for CD44-APC^high (Milteny Biotec) and CD24-PE^low (Milteny Biotec) cell surface markers. A single cell suspension of model cells ZR75-PELP1 were seeded in mammosphere media in a low adherent 96-well plate with TAT or PIP (10, 20 or 50 μM). Media containing peptide was added on day 4 and mammospheres were counted and imaged on day 8 (Shaw et al., 2012).

BG1 cells = experiment: Ovarian cancer cell proliferation; assay type: cell-based; conditions: BG1, FIG. 14
Experimental: FIG. 14. […] Cell proliferation rates were measured by using MTT Cell Viability Assay in 96-well plates. Model cells were seeded in 96-well plates (1×10^3 cells/well) in DMEM or RPMI medium containing 10% serum. After an overnight incubation, cells were treated with varying concentrations of the peptides for 3-7 days and growth inhibition was determined by using traditional MTT assay (Sigma) following manufacturer's instructions.

What does the source list for GRKKRRQRRRGGMVEFRWSCPGRRKAKA [PIP1]?
ERE activation (ERE-luciferase) [1]: significantly decreased ERE activation; estrogen response synergistically activated by PELP1 and G9a (ERE-luciferase) [2]: inhibited; colony formation in soft agar (anchorage independence) (ZRPELP1 cells): substantial decrease in colony formation; number of mammospheres ([3]; 10, 20 and 50 μM, FIG. 6B): significant decrease in the number of mammospheres; size of the mammospheres ([3]; 10, 20 and 50 μM, FIG. 6B): substantially decreased; self-renewal capacity of replated mammospheres ([3]; dissociated and replated, FIG. 6C): decreased self-renewal capacity; also recorded: inhibits the self-renewal of the cancer stem cells; proliferation of ovarian cancer cells (BG1 cells): dose-dependent decrease in the proliferation; also recorded: inhibits proliferation of ovarian cancer cells
